In ChEMBL document CHEMBL3112546, “Synthetic α-(aminomethyl)-γ-butyrolactones and their anti-pancreatic cancer activities” (2013):
Where a name gives a salt, the structure may show the parent alone. Active and inactive are the calls of the source. The calls are words filed in the database; no cut-off is given here.

Columns and labels:
[1] = Antiproliferative activity against human BxPC3 cells assessed as cell growth at 10 uM after 72 hrs by CellTitre assay relative to control; type: functional; details: BXPC-3, 72 h, read-out: Activity
[2] = Antiproliferative activity against human MIAPaCa2 cells assessed as cell growth at 10 uM after 72 hrs by CellTitre assay relative to control; type: functional; details: MIA PaCa-2, 72 h, read-out: Activity
[3] = Antiproliferative activity against human PANC1 cells assessed as cell growth at 10 uM after 72 hrs by CellTitre assay relative to control; type: functional; details: PANC-1, 72 h, read-out: Activity
[4] = tested on: PANC-1; assay: Antiproliferative activity against human PANC1 cells assessed as cell growth at >100 uM after 72 hrs by CellTitre assay relative to control; type: functional, cell-based

C=C1C(=O)O[C@@H]2[C@H]3O[C@]3(C)CC/C=C(\C)CC[C@@H]12
growth at 10 µM [1]: 6% | growth at 10 µM [2]: 3% | growth at 10 µM [3]: 12%

C=C1C(=O)O[C@@H](c2ccccc2)[C@@H]1c1ccccc1 (racemic)
growth at 10 µM [1]: 1% | growth at 10 µM [2]: 1% | growth at 10 µM [3]: 1%

C=C1C(=O)O[C@H](c2ccccc2)[C@@H]1c1ccccc1 (racemic)
growth at 10 µM [1]: 8% | growth at 10 µM [2]: 3% | growth at 10 µM [3]: 38%

CN(C)C[C@H]1C(=O)O[C@@H](c2ccccc2)[C@@H]1c1ccccc1 (racemic)
growth at 10 µM [1]: 0% | growth at 10 µM [2]: 1% | growth at 10 µM [3]: 0%

CN(C)C[C@@H]1C(=O)O[C@H](c2ccccc2)[C@@H]1c1ccccc1 (racemic)
growth at 10 µM [1]: 1% | growth at 10 µM [2]: 9% | growth at 10 µM [3]: 30%

CCN(CC)C[C@H]1C(=O)O[C@@H](c2ccccc2)[C@@H]1c1ccccc1 (racemic)
growth at 10 µM [1]: 0% | growth at 10 µM [2]: 1% | growth at 10 µM [3]: 1%

CCN(CC)C[C@@H]1C(=O)O[C@H](c2ccccc2)[C@@H]1c1ccccc1 (racemic)
growth at 10 µM [1]: 1% | growth at 10 µM [2]: 17% | growth at 10 µM [3]: 42%

O=C1O[C@@H](c2ccccc2)[C@H](c2ccccc2)[C@H]1CN1CCCC1 (racemic)
growth at 10 µM [1]: 0% | growth at 10 µM [2]: 1% | growth at 10 µM [3]: 3%

O=C1O[C@H](c2ccccc2)[C@H](c2ccccc2)[C@@H]1CN1CCCC1 (racemic)
growth at 10 µM [1]: 0% | growth at 10 µM [2]: 17% | growth at 10 µM [3]: 11%

O=C1O[C@@H](c2ccccc2)[C@H](c2ccccc2)[C@H]1CN1CCCCC1 (racemic)
growth at 10 µM [1]: 1% | growth at 10 µM [2]: 1% | growth at 10 µM [3]: 1%

O=C1O[C@H](c2ccccc2)[C@H](c2ccccc2)[C@@H]1CN1CCCCC1 (racemic)
growth at 10 µM [1]: 3% | growth at 10 µM [2]: 11% | growth at 10 µM [3]: 8%

O=C1O[C@@H](c2ccccc2)[C@H](c2ccccc2)[C@H]1CN1CCOCC1 (racemic)
growth at 10 µM [1]: 9% | growth at 10 µM [2]: 10% | growth at 10 µM [3]: 16%

O=C1O[C@H](c2ccccc2)[C@H](c2ccccc2)[C@@H]1CN1CCOCC1 (racemic)
growth at 10 µM [1]: 6% | growth at 10 µM [2]: 13% | growth at 10 µM [3]: 19%

O=C1O[C@@H](c2ccccc2)[C@H](c2ccccc2)[C@H]1CN(Cc1ccccc1)Cc1ccccc1 (racemic)
Activity [4]: inactive | growth at 10 µM [1]: 50% | growth at 10 µM [2]: 35%

O=C1O[C@H](c2ccccc2)[C@H](c2ccccc2)[C@@H]1CN(Cc1ccccc1)Cc1ccccc1 (racemic)
growth at 10 µM [1]: 34% | growth at 10 µM [2]: 33% | growth at 10 µM [3]: 75%

O=C1O[C@@H](c2ccccc2)[C@H](c2ccccc2)[C@H]1CN(Cc1ccccc1)C(=O)c1ccccc1 (racemic)
Activity [4]: inactive | growth at 10 µM [1]: 81% | growth at 10 µM [2]: 92%

C/C1=C\CC[C@@]2(C)O[C@@H]2[C@H]2OC(=O)[C@@H](CN(C)C)[C@@H]2CC1 [(DIMETHYLAMINO)PARTHENOLIDE FUMARIC ACID SALT]
growth at 10 µM [1]: 7% | growth at 10 µM [2]: 2% | growth at 10 µM [3]: 17%
